We go through 23 compounds from EP1242382B1, “TRICYCLIC PROTEIN KINASE INHIBITORS” (Wyeth, priority 1999, dated 2001).

A word on the pIC50: it is the IC50 on a negative log10 scale, so that one unit is a factor of ten.

Molecules are shown by their SMILES. pIC50: −log10 of the molar value.

In the first assay the target is T1, p60^c-src (Src) (Homo sapiens, UniProt P12931).
T1 construct: purchased Upstate Biotechnologies
T1 sequence (P12931 whole entry): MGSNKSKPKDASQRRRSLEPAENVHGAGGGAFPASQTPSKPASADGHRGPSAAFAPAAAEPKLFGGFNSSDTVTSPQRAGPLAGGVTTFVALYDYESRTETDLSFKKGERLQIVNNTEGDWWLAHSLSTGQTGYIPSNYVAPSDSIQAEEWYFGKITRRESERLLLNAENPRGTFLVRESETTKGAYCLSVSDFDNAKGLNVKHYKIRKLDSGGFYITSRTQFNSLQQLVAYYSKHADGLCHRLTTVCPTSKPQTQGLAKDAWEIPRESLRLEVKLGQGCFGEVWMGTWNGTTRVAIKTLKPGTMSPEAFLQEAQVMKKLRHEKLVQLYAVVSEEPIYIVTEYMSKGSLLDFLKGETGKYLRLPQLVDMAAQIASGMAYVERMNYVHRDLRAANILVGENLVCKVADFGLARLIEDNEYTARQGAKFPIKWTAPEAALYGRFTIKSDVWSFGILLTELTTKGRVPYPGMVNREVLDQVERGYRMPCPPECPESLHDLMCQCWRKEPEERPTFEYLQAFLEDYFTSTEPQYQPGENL
The assay is described as follows: Src kinase test procedure (Elisa format). The class given is biochemical. The settings on record: dose 0.1 µM; read-out: Src %Inh. On the procedure: Inhibitors of p60^c-src (partially purified preparation purchased from Upstate Biotechnologies) tyrosine kinase activity are analyzed in an Elisa format. […] HRP-conjugated anti-phosphotyrosine is used to detect phosphorylated peptide via a color reaction. Conditions recommended by the manufacturer are employed.
Reaction conditions: Five microliter aliquots of each compound prepared fresh at the time of the assay are added as a solution in 10mM HEPES pH 7.5, 10% DMSO to the reaction well. Thirty-five microliters of reaction mix containing Src, buffer and peptide/bovine serum albumin mix are added to the compound wells and incubated at 30°C for 10 minutes (reaction buffer: 50mM TrisHCl pH 7.5, 10mM MgCl2, 0.1mM EGTA, 0.5mM Na3VO4). The reaction is started by addition of 10 microliters of ATP, incubated at 30°C for 1 hour, and stopped by addition of 20 microliters of 0.5M EDTA. The reaction mixture with the phosphorylated peptide is then transferred to a streptavidin-coated microtiter plate (provided in the kit) and allowed to bind for 20 minutes. Unbound peptide and reaction mixture is decanted and the plate is washed with PBS six times. Horseradish peroxidase-conjugated phosphotyrosine antibody supplied in the kit is incubated with the plate for one hour, then decanted. The plate is again washed with PBS six times.
Turning to `COc1ccc2cc3ncc(C#N)c(Nc4ccc(Cl)cc4Cl)c3cc2c1` [Example 103, 4-(2,4-Dichloroanilino)-7-methoxybenzo[g]quinoline-3-carbonitrile], the inhibition at 0.1 µM was found to be 30%.

For the compound `COc1ccc2cc3c(Nc4ccc(Cl)cc4Cl)c(C#N)cnc3cc2c1` [Example 104, 4-(2,4-dichloroanilino)-8-methoxybenzo[g]quinoline-3-carbonitrile], the inhibition at 0.1 µM was found to be 30%.

As to `COc1cc(Nc2c(C#N)cnc3nc4cc(OCCN5CCOCC5)c(OC)cc4cc23)c(Cl)cc1Cl` [Example 173, 4-(2,4-Dichloro-5-methoxyanilino)-7-methoxy-8-[2-(4-morpholinyl)ethoxy]benzo[b][1,8]naphthyridine-3-carbonitrile], the inhibition at 0.1 µM stood at 33%.

Staying with this assay, now noted: dose 5 µM; read-out: Src %Inh.
Turning to `COc1cc2cc3c(Nc4ccc(Cl)cc4Cl)c(C#N)cnc3nc2cc1OC` [Example 177, 4-(2,4-Dichloroanilino)-7,8-dimethoxybenzo[b] [1,8]naphthyridine-3-carbonitrile], the inhibition at 5 µM came out at 30%.

Staying with this assay, now noted: dose 10 µM.
Consider `N#Cc1cnc2c(oc3ccccc32)c1Nc1ccc(Cl)cc1F` [Example 86, 4-(4-Chloro-2-fluorophenylamino)benzo[4,5]furo[3,2-b]pyridine-3-carbonitrile], for which the “Src %Inh” value amounted to 46%.

The same assay, now with this note: dose 10 µM; read-out: Src %Inh.
In the case of `COc1cc(Nc2c(C#N)cnc3c2sc2ccc([N+](=O)[O-])cc23)c(C)cc1Cl` [Example 75, 4-(4-Chloro-5-methoxy-2-methylphenylamino)-8-nitrobenzo[4,5]thieno[3,2-b]pyridine-3-carbonitrile], the inhibition at 10 µM amounted to 0%.

Turning to `N#Cc1cnc2c(oc3ccccc32)c1Nc1ccc(Cl)cc1F` [Example 86, 4-(4-Chloro-2-fluorophenylamino)benzo[4,5]furo[3,2-b]pyridine-3-carbonitrile], the inhibition at 10 µM stood at 54%.

A further assay has as its system Rat2 fibroblasts stably transformed with v-Src/Hu c-Src fusion gene. Nature of the assay: Anchorage independent Src-transformed fibroblast proliferation test procedure. The class given is cell-based. To be noted: Rattus norvegicus, @ dose 10 µM, read-out: Src TF prolif %Inh. An excerpt:
Anchorage Independent Src-transformed Fibroblast Proliferation Test Procedure: Rat2 fibroblasts stably transformed with a plasmid containing a CMV promotor controlled v-Src/Hu c-Src fusion gene in which the catalytic domain of human c-Src is inserted in place of the v-Src catalytic domain in the v-Src gene are used for the measurement of src dependent suspension growth.
As for `COc1cc(Nc2c(C#N)cnc3cc4c(cc23)ncn4CCN2CCOCC2)c(C)cc1Cl` [Example 57, 8-(4-Chloro-5-methoxy-2-methylanilino)-3-[2-(4-morpholinyl)ethyl]-3H-imidazo[4,5-g]quinline-7-carbonitrile], the inhibition at 10 µM was found to be 0%.

The assay is the same for the next values; noted with them: Rattus norvegicus, the 3rd table c6, (a)-(d) = average of two to five runs, read-out: Src TF prolif IC50.
On to `COc1cc(Nc2c(C#N)cnc3cc4cc(OCCCN5CCOCC5)c(OC)cc4cc23)c(Cl)cc1Cl` [Example 157, 4-(2,4-dichloro-5-methoxyphenylamino)-7-methoxy-8-(3-morpholin-4-yl-propoxy)benzo[g]quinoline-3-carbonitrile], for which the negative-log IC50 (pIC50) is 7.42.

On to `COc1cc(Nc2c(C#N)cnc3cc4cc(OCCn5nccn5)c(OC)cc4cc23)c(Cl)cc1Cl` [Example 158, 4-(2,4-Dichloro-5-methoxyphenylamino)-7-methoxy-8-(2-[1,2,3]triazol-2-yl-ethoxy)benzo[g]quinoline-3-carbonitrile], for which the pIC50 was 7.17.

Turning to `COc1cc(Nc2c(C#N)cnc3cc4cc(OCCn5ccnn5)c(OC)cc4cc23)c(Cl)cc1Cl` [Example 159, 4-(2,4-Dichloro-5-methoxyphenylamino)-7-methoxy-8-(2-[1,2,3]triazol-1-yl-ethoxy)benzo[g]quinoline-3-carbonitrile], the pIC50 is 7.14.

As to `COc1cc(Nc2c(C#N)cnc3nc4cc(OC)c(OC)cc4cc23)c(Cl)cc1Cl` [Example 165, 4-(2,4-Dichloro-5-methoxyanilino)-7,8-dimethoxybenzo[b] [1,8]naphthyridine-3-carbonitrile], the pIC50 was less than 5.00.

In the case of `COc1cc(Nc2c(C#N)cnc3nc4cc(OCCCl)c(OC)cc4cc23)c(Cl)cc1Cl` [Example 172, 8-(2-Chloroethoxy)-4-(2,4-dichloro-5-methoxyanilino)-7-methoxybenzo[b][1,8]naphthyridine-3-carbonitrile], the pIC50 is 5.73.

Consider `COc1cc(Nc2c(C#N)cnc3nc4cc(OCCN5CCOCC5)c(OC)cc4cc23)c(Cl)cc1Cl` [Example 173, 4-(2,4-Dichloro-5-methoxyanilino)-7-methoxy-8-[2-(4-morpholinyl)ethoxy]benzo[b][1,8]naphthyridine-3-carbonitrile], for which the negative-log IC50 (pIC50) was 5.43.

With `CCOc1cc2cc3ncc(C#N)c(Nc4cc(OC)c(Cl)cc4C)c3cc2cc1OCCN1CCOCC1` [Example 190, 4-(4-Chloro-5-methoxy-2-methylanilino)-8-ethoxy-7-[2-(4-morpholinyl)ethoxy]benzo[g]quinoline-3-carbonitrile], the pIC50 was 6.77.

As to `CCOc1cc2cc3c(Nc4cc(OC)c(Cl)cc4C)c(C#N)cnc3cc2cc1OCCN1CCOCC1` [Example 191, 4-(4-Chloro-5-methoxy-2-methylanilino)-7-ethoxy-8-[2-(4-morpholinyl)ethoxy]benzo[g]quinoline-3-carbonitrile], the pIC50 was 7.66.

On to `CCOc1cc2cc3c(Nc4cc(OC)c(Cl)cc4C)c(C#N)cnc3cc2cc1OCCN(CC(N)=O)CC(N)=O` [Example 194, 2-(Carbamoylmethyl-{2-[4-(4-chloro-5-methoxy-2-methylphenylamino)-3-cyano-7-ethoxybenzo[g]quinolin-8-yloxy]-ethyl}-amino)-acetamide], for which the negative-log IC50 (pIC50) was less than 5.00.

Consider `COc1cc(Nc2c(C#N)cnc3cc4cc(OC)c(OCCN5CCN(C)CC5)cc4cc23)c(Cl)cc1F` [Example 201, 4-(2-Chloro-4-fluoro-5-methoxyanilino)-8-methoxy-7-[2-(4-methyl-1-piperazinyl)ethoxy]benzo[g]quinoline-3-carbonitrile], for which the negative-log IC50 (pIC50) is 6.76.

On to `COc1cc(Nc2c(C#N)cnc3cc4cc(OC)c(OCCN5CCN(C)CC5)cc4cc23)c(Cl)cc1C` [Example 202, 4-(2-Chloro-5-methoxy-4-methylanilino)-8-methoxy-7-[2-(4-methyl-1-piperazinyl)ethoxy]benzo[g]quinoline-3-carbonitrile], for which the negative-log IC50 (pIC50) was 7.17.

On to `COc1cc(Nc2c(C#N)cnc3cc4cc(OCCN5CCN(C)CC5)c(OC)cc4cc23)c(Cl)cc1C` [Example 203, 4-(2-Chloro-5-methoxy-4-methylanilino)-7-methoxy-8-[2-(4-methyl-1-piperazinyl)ethoxy]benzo[g]quinoline-3-carbonitrile], for which the pIC50 is 7.15.

With `COc1cc(Nc2c(C#N)cnc3cc4cc(OC)c(OCCN5CCC(O)CC5)cc4cc23)c(Cl)cc1C` [Example 207, 4-(2-Chloro-5-methoxy-4-methylanilino)-8-methoxy-7-[2-(4-hydroxy-1-piperidinyl)ethoxy]benzo[g]quinoline-3-carbonitrile], the negative logarithm of the IC50 (pIC50) is 6.03.

As to `COc1cc(Nc2c(C#N)cnc3cc4cc(OC)c(OCCN5CCOCC5)cc4cc23)c(Cl)cc1F` [Example 209, 4-(2-Chloro-4-fluoro-5-methoxyanilino)-8-methoxy-7-[2-(4-morpholinyl)ethoxy]benzo[g]quinoline-3-carbonitrile], the pIC50 is 6.51.

Take `COc1cc(Nc2c(C#N)cnc3cc4cc(OCCN5CCN(C)CC5)c(OC)cc4cc23)c(Cl)cc1F` [Example 211, 4-(2-Chloro-4-fluoro-5-methoxyanilino)-7-methoxy-8-[2-(4-methyl-1-piperazinyl)ethoxy]benzo[g]quinoline-3-carbonitrile]: the negative-log IC50 (pIC50) was 6.89.

The target in another assay is T2, Raf-1 (c-Raf) (Homo sapiens, UniProt P04049).
T2 construct: Sf9 insect cell lysate containing full length 6his-tagged recombinant human c-Raf; host or cells: c-Raf: Sf9 insect cell lysate; MEK1 and MAPK: E. coli
T2 sequence (P04049 whole entry): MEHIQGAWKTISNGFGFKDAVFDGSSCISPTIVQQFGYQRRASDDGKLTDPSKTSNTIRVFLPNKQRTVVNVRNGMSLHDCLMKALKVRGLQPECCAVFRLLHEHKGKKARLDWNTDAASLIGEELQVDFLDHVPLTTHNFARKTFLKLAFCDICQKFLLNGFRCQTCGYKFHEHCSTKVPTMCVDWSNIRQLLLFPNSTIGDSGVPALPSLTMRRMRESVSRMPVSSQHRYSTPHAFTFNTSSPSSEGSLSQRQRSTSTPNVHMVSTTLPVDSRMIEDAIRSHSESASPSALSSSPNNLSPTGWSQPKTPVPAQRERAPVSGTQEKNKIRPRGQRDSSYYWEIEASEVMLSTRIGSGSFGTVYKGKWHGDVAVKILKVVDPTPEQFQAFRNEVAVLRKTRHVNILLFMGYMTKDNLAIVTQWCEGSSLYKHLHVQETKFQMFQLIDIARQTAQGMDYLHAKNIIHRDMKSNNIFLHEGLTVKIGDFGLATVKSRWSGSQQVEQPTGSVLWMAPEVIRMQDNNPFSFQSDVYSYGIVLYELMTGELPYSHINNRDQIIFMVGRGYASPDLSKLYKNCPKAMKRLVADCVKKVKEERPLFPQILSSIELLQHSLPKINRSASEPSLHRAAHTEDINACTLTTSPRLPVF
The assay is described as follows: Raf1 kinase cascade assay procedure. The class given is biochemical.
Settings: not given
On the procedure:
(Specific Activity: ~200U/ml). Human Non-active Mek-1-GST and human GST-MAP kinase (recombinant proteins produced in E. coli).
• 1. Assay Dilution Buffer (ADB): 20mM MOPS, pH 7.2, 25mM β-glycerol phosphate, 5mM EGTA, 1mM sodium orthovanadate, 1mM dithiothreitol. • 2. Magnesium/ATP Cocktail: 500µM cold ATP and 75 mM magnesium chloride in ADB. • 4. Active Kinase: Human Active c-Raf: Use at 0.4U per assay point • 5. Non-active GST-MEK1: Use at 0.1µg per assay point. • 6. Non-active GST-p42 MAP Kinase: Use at 1.0 µg per assay point
• 1. TBST - Tris (50 mM, pH 7.5), NaCl (150 mM), Tween-20 (0.05 %) • 2. Superblock (Pierce) • 3. Anti-GST Ab (Pharmacia) • 4. Anti-Phospho MAPK (Sigma) • 5. Anti-Mouse Ab / Europium conjugate (Wallac)
First Stage: c-Raf Dependent Activation of GST-MEK and GST-MAPK • 1. Add […] of ADB per assay (i.e. per well of a 96 well plate) • 2. Add 10 ml of 0.5 mM cold ATP and 75 mM magnesium chloride in ADB. • 3. Add 2 ml of c-Raf (0.4U/assay), in conjunction with 1.6ml non-active MEK1 ([…]). • 4. Add 4 ml of non-active GST-p42 MAP Kinase (1.0 mg/assay). • 5. Incubate for 60 minutes at 30°C in a shaking incubator. • 6. Transfer this mixture to an anti-GST Ab coated 96 well plate (Nunc Immunosorb plates coated o/n with a-GST, then blocked with Pierce Superblock). • 7. Incubate for 60 minutes at 30°C in a shaking incubator Wash 3X with TBST, add Anti-Phospho MAPK (Sigma) (1:3000) • 6. Incubate for 60 minutes at 30°C in a shaking incubator • 7. Wash 3X with TBST, add Anti-Mouse Ab / Europium conjugate (Wallac) (1:500) • 8. Incubate for 60 minutes at 30°C in a shaking incubator • 9. Wash 3X with TBST, Read plates in Wallac Victor model Plate Reader. • 10. Collect data analyze in Excel for single point and IC50 determinations.
Typically Raf-1 assay is run at compound concentrations from 10 µM to 1 nM in half log dilutions. (% inhibition is determined for each compound concentration).
As to `N#Cc1cnc2cc3ccccc3cc2c1Nc1ccc(Oc2ccccc2)cc1` [Example 3, 4-(4-Phenoxyanilino)benzo[g]quinoline-3-carbonitrile], the pIC50 is 7.05.

In turn, `COc1cc(Nc2c(C#N)cnc3cc4cc(OCCN5CCOCC5)c(OC)cc4cc23)c(Cl)cc1Cl` [Example 129, 4-(2,4-dichloro-5-methoxyanilino)-7-methoxy-8-[2-(4-morpholinyl)ethoxy]benzo[g]quinoline-3-carbonitrile] had a pIC50 of 6.52.
